Results taken from a melting point compilation (Tetko et al.; mined from patent text by program, amines drawn as free bases though some values may be those of a salt).

| melting point [°C] | SMILES |
| --- | --- |
| 180 to 182 | N#Cc1c(Cc2ccccc2)nn(C2CCCC2)c1N |
| 102 to 103 | CCOC(=O)c1sc(N2C[C@@H](Cc3ccccc3)NC2=O)nc1C |
| 156 to 158 | CN(C)c1ccccc1CSc1nccc(=O)[nH]1 |
| 133 to 134 | CCN1c2ncc(C=O)cc2C(=O)N(C)c2ccc(F)nc21 |
| 89 to 90 | Cc1cc(-c2ccc(C(F)(F)F)cc2)nc2ccnn12 |
| 201 to 203 | CCn1ncc2c(NCC3(O)CCCCC3)c3cc(OC)ccc3nc21 |
| 202 to 203 | BrCc1ccc2sc3ccc4ccccc4c3c2c1 |
| 175 to 178 | C=CCc1ccc(C2=NNC(=O)CC2)cc1O |
| 177 to 178 | CCCC(=O)Nc1c(C)c(C)c2c(c1C)C(c1ccc(C(C)C)cc1)CO2 (stereo not given) |
| 134 to 136 | O=[N+]([O-])c1cc(Cl)c(Cl)cc1NC1CCC(O)C1O (stereo not given) |
| 97 to 99 | C=C1CCc2onc(-c3ccccc3)c2C1=O |
| 241 to 245 | O=C(O)c1cc(-c2ccnc(Nc3cccc(C(F)(F)F)c3)n2)ccn1 |
| 127 to 129 | CCc1ccc(-c2ccc3c(c2)C=C(C(=O)Nc2ccc(CN(C)C4CCOCC4)cc2)CCN3C)cc1CC |
| 140 to 144 | CC(C)N1CC2(COc3ccc([N+](=O)[O-])cc3OC2)OC1=O (stereo not given) |
| 154 | COc1ccc(Br)c(C(=O)N2CCN(S(=O)(=O)c3c(F)cccc3F)CC2)c1 |
| 158 to 160 | OC1(C(F)(F)F)CC(c2ccc(Cl)cc2)=NN1Cc1cccnc1 (stereo not given) |
| 94 to 95 | Cc1c(OCC(O)CN2CCOCC2)noc1-c1ccccc1 (stereo not given) |
| 199 to 200 | O=C1NN=C(c2ccc(Cl)cc2)C2CC12 (stereo not given) |
| 81 | CC1CCN(c2ccc([N+](=O)[O-])cc2C(=O)c2ccccc2)CC1 |
| 71.5 to 73.5 | CCC(=O)OCCc1ccc2c(c1)C(=O)c1ccccc1CO2 |
| 144 to 146 | N#Cc1cc(C(=O)N2CCC[C@H](c3nc(-c4ccc(F)cc4)no3)C2)ccc1F |
| 60 | COc1ccc2nccc(CCC[C@@H]3CCN(CCCc4cccs4)C[C@@H]3C(=O)O)c2c1 |

| melting point [°C] | SMILES |
| --- | --- |
| 171 to 173 | CC(C)CCc1c(-c2ccc(S(N)(=O)=O)cc2)cnn(-c2ccc(F)c(F)c2)c1=O |
| 259 to 260 | CC(=O)NCC1CN(c2ccc(C(=O)c3cnc4n3CCS4)cc2)C(=O)O1 (stereo not given) |
| 204 to 205 | CCn1nc(-c2ccccc2)c(C(C)=O)c(Nc2cccc3nc(C)ccc23)c1=O |
| 292 to 293 | O=C1Nc2ccc(C(F)(F)F)cc2C1c1ncnc2nn(C3CCCC3)cc12 (stereo not given) |
| 227 to 228 | CC1(C)CCC(C)(C)c2cc(C#Cc3ccc(-c4nnn[nH]4)cc3)ccc21 |
| 248 | CCOc1ccc2c(c1)n(C13CC4CC(CC(C4)C1)C3)c(=O)n2S(=O)(=O)c1ccc(N)cc1OC |
| 169 to 180 | Cc1nnc(-c2ccc(CN3C(=O)C4(COc5cc6c(cc54)CCO6)c4ccccc43)cc2)[nH]1 (stereo not given) |
| 114 | O=C1[C@H](CC[C@H](O)c2ccc(F)cc2)[C@@H](c2ccc(Br)cc2OCc2ccccc2)N1c1ccccc1 |
| 146 to 148 | CC(=O)N(C)C1CCC(O)(c2ccc(Cl)c(Cl)c2)c2ccccc21 (stereo not given) |
| 260 to 262 | ClCc1ccc(-c2nnc3n2-c2cccnc2Nc2ccccc2-3)cc1 |
| 223 to 225 | CCc1nc2c(N)nc3cc(OCCN(C(N)=O)C(C)C)ccc3c2n1CC1CCOCC1 |
| 73 to 74 | COCn1ncc2cc(C(=O)OC)ccc21 |
| 177 to 180 | O=C1CCCN1Nc1ccncc1 |
| 119 | CC(C)(C)OC(=O)N1C[C@@H]2C(=O)CCC(c3ccccc3)(c3ccccc3)[C@@H]2C1 |
| 220 to 222 | Cc1nc2cccc(OC3CCCCC3)c2c(N)c1C(=O)O |
| 218 | CC(C)(C)OC(=O)N1CCC(OCc2ccccc2)C1CC(=O)Cn1cnc2cccc(C(F)(F)F)c2c1=O (stereo not given) |
| 137 to 138 | NC(=O)N(O)Cc1ccc(OCCc2csc(-c3ccccc3)n2)cc1 |
| 160 to 162 | Cc1cc(F)ccc1-c1nc(NC(C)(CO)CO)nc2c1ccc(=O)n2-c1ccccc1F |
| 113 to 114 | CC(=O)Oc1cc(S(=O)(=O)Oc2ccc(C(=O)c3c(Cc4ccc(Br)cc4)sc(C)c3C)cc2C2CCCC2)ccc1C(=O)O |
| 174 to 176 | CCN1c2ncc(CC(O)c3ccncc3)cc2C(=O)N(C)c2ccc(F)nc21 (stereo not given) |
| 66 to 66.5 | COc1ccc(C2CCN(C(=O)C(N)=O)CC2)cc1OC1CCCC1 |

Second part, the compound before the results:

| SMILES | melting point [°C] |
| --- | --- |
| COc1ccc2sc(C(=O)Nc3ccc(S(=O)(=O)OC)cc3)c(OC(C)C)c2c1 | 176 to 177 |
| CCOC(=O)c1ccc(NC(=O)CCc2ccc(C)cc2)cc1 | 154 to 155 |
| Cc1cc(N)nc(CCCCCCCCCCO)c1O | 138 to 139 |
| C/C(Cl)=C/CC(C(=O)O)C(=O)O | 95 to 97 |
| Cc1cc(Cl)c(C(N)=O)c(Cl)c1 | 101 to 107 |
| Brc1ccc(C2=CCCC2)cc1 | 94 to 95 |
| Nc1nc(N)nc(C=Cc2ccc(C=C3C(=O)NC(=O)NC3=O)cc2)n1 | > 350 |
| O=C(CCn1c2ccc(O)cc2c2c3c(c(-c4ccccc4Cl)cc21)C(=O)NC3=O)NS(=O)(=O)c1ccccc1 | 291 to 293 |
| NC(=O)c1[nH]cnc1OC(=O)c1ccccc1C(=O)OCc1ccccc1 | 122 to 124 |
| CSc1cn(C(c2ccccc2)(c2ccccc2)c2ccccc2)c(F)n1 | 142 to 143 |
| CCCCC1(N(C)C)CC=C(c2[nH]c3ccccc3c2CCNC(=O)CC(C)(C)C)CC1 (stereo not given) | 139 to 142 |
| N#Cc1ccc(N=Nc2ccc(OCCO)c(C#N)c2)cc1 | 138 |
| CCCc1cc(C=O)c(O)cc1O | 92.8 to 93.6 |
| CCCCCCCCCCCCc1nnc(C(C(=O)Nc2c(OC)cc(OC)cc2OC)c2ccccc2)o1 (stereo not given) | 120 to 121 |
| Cc1c(Cl)cccc1S(=O)(=O)Nc1nc(CC(=O)N(C)C)cs1 | 84 |
| CC(C)=CCCC(C)C1CCC2C3CCC4CC(O)CCC4(C)C3CCC12C (stereo not given) | 117 to 118 |
| CCOC(=O)Cc1cc(O)c(C)cc1O | 134 |
| CCCC[C@H](NC(=O)[C@H](CC(C)C)NC(=O)c1cccc(C)c1)C(=O)CSCc1ccco1 | 123 to 126 |
| CCON=C(C)c1cccc(Oc2nc(OC)cc(OC)n2)c1C(=O)OC | 93 to 95 |

| SMILES | melting point [°C] |
| --- | --- |
| CCOC(=O)Nc1ccc(C23CC4CC(CC(C4)C2)C3)cc1 | 132 to 134 |
| CC(C)NCCCS(=O)(=O)O | 240 to 243 |
| Cc1nc2ccsc2c(=O)n1-c1ccccc1Cl | 118 to 121 |
| CCS(=O)(=O)N[C@H](C(=O)NCCc1cc(Br)c(OCC#Cc2ccc(Cl)cc2)c(OC)c1)C(C)C | 109 to 111 |
| CCOC(=O)C=Cc1ccc(OCc2nc(-c3ccco3)oc2C)c(OC)c1 | 142 to 143 |
| CN(C)S(=O)(=O)n1c(C#N)nc2ccccc21 | 93 |
| CN(C(=O)OC(C)(C)C)[C@H](Cc1ccc2ccccc2c1)C(=O)N1CCN(S(C)(=O)=O)C[C@H]1Cc1ccccc1 | 76 to 80 |
| COc1nc(SC)nc(Cl)c1C(=O)O | 179 to 181 |
| CCCOc1ccc(CCNC(=O)C=Cc2ccc(Cl)cc2Cl)cc1OCCC | 132 to 134 |
| COc1ccnc2[nH]c(CO)cc12 | 210 to 212 |
| CN(C(=O)Nc1ccc(Cl)cc1)c1nncs1 | 182 |
| CNS(=O)(=O)CCc1ccc(NN=CCCC#N)cc1 | 96 to 97 |
| CN1C=CCC(C(=O)NCCc2ccc(OC(=O)C(C)(C)C)c(OC(=O)C(C)(C)C)c2)=C1 | 45 to 48 |
| O=C(O)c1cc(F)c(F)c(OC(F)F)c1F | 68 to 70 |
| Clc1ccc(-c2ccc[nH]2)cc1Cl | 49 to 51 |
| CN(C)c1ccc(/C=C/c2c(F)cccc2F)cc1 | 112 to 113 |
| N#Cc1cc(NCc2ccncc2)n(-c2c(Cl)cc(C(F)(F)F)cc2Cl)n1 | > 300 |
| CCNc1nc(N)nc(N)n1 | 171 |
| CC(=O)Nc1ccc(OCC(O)CN(C)C)c(NC(C)=O)c1 (stereo not given) | 118 to 120 |

| SMILES | melting point [°C] |
| --- | --- |
| CC(=O)c1ccc(CCN2CCN(c3ccc(Cl)cc3)CC2)cc1 | 141 to 143 |
| CC(C)C(NS(=O)(=O)c1ccc(-c2cccc(CNC(=O)c3nc4ccccc4c(=O)[nH]3)c2)cc1)C(=O)NO (stereo not given) | 153 to 155 |
| Nc1ccc(Nc2ccc(CCc3ccc(Cl)c(Cl)c3)cc2)c(C(=O)O)c1 | 137 to 142 |
| CN1CCc2cc(O)c(O)c(Sc3cccs3)c2CC1 | 189 to 191 |
| CCCNC(=O)Nc1ccccc1C(=O)OC | 102 |
| Cc1ccccc1-c1ccc(C(=O)N2Cc3ccc(C(=O)NCCc4ccc(Cl)cc4)n3Cc3ccccc32)cc1C | 169 to 171 |
| CCOC(=O)C(C)NC(=O)N(N(CCCl)S(C)(=O)=O)S(C)(=O)=O (stereo not given) | 111 to 112 |
| CNc1cc(NC)c(C(=O)NCCC(=O)OC)cc1NC(=O)c1ccc(C#N)cc1 | 208 to 210 |
| O=C(CCCCCNCC(O)c1ccccc1)OCc1ccccc1 (stereo not given) | 77 to 78 |
| CC(C)(C)c1cc(C(=O)c2ccsc2)cc2c1OCC2(C)C | 89 to 90 |
| CC(Cl)(Cl)C(NC(=O)c1ccc(Cl)cc1)NC(=NC#N)Nc1ccc(Cl)nc1 (stereo not given) | 199 to 200 |
| O=C1CCC(O)(c2nc3ccccc3s2)C(Sc2ccccc2)(Sc2ccccc2)C1 (stereo not given) | 150 to 151 |
| COC(=O)c1cc(N)nn1C | 114 to 118 |
| CC(C)(C)OCC(=O)c1cnc(NC(=O)C(C)(C)C)cn1 | 138 to 140 |
| Cc1cccc(NC(=O)NC2N=C(c3ccccc3F)c3ccccc3N(Cc3ncccc3C(N)=O)C2=O)c1 (racemic) | 203 |
| CC1(C)CCC23CCC4(C)C(CCC5C6(C)CCC(O)C(C)(C)C6CCC54C)C2C1OC3 (stereo not given) | 268 to 269 |
| COC(=O)NNS(=O)(=O)c1ccccc1 | 149 to 154 |
| CCCCCCCCC(=O)NCc1ccc(Oc2ccccc2[N+](=O)[O-])c(OC)c1 | 93 to 93.5 |
| Cc1cccc(C(=C2CN(C(c3ccccc3)c3ccccc3)C2)S(C)(=O)=O)c1 | 180 |
